For this experiment, the system named is Human Microvascular Endothelial Cells (HMVEC). As to the kind of experiment: Endothelial cell migration assay (modified Boyden chamber, bFGF-stimulated). The following applies: bFGF in upper chamber, 4 hours at 37 °C, percent inhibition of migration compared to a positive control; for inhibition at 0.2 µM: Homo sapiens, HMVEC, 200 nM test compound. The format is cell-based. As for the experimental part: The endothelial cell migration assay was performed essentially as described by Polverini, P.J. et al., Methods Enzymol, 198: 440-450 (1991). Briefly, Human Microvascular Endothelial Cells (HMVEC) were starved overnight in DMEM containing 0.1% bovine serum albumin (BSA). Cells were then harvested with trypsin and resuspended in DMEM with 0.1% BSA at a concentration of 1.5 x 10^6 cells/mL. Cells were added to the bottom of a 48-well modified Boyden chamber (Nucleopore Corporation, Cabin John, MD). The chamber was assembled and inverted, and cells were allowed to attach for 2 hours at 37 °C to polycarbonate chemotaxis membranes (5 µm pore size) that had been soaked in 0.1% gelatin overnight and dried. The chamber was then reinverted and basic fibroblast growth factor (bFGF) and test substances were added to the wells of the upper chamber (to a total volume of 50 µL); the apparatus was then incubated for 4 hours at 37 °C. Membranes were recovered, fixed and stained (DiffQuick, Fisher Scientific, Pittsburgh, PA) and the number of cells that had migrated to the upper chamber per 10 high power fields were counted. Background migration to DMEM +0.1% BSA was subtracted and the data reported as the number of cells migrated per 10 high power fields (400X) or when results from multiple experiments were combined, as the percent inhibition of migration compared to a positive control.

By inhibition is commonly meant the share of the control response that was lost under treatment. Higher therefore signals a response far below the control. Broadly, the % inhibition is the percentage by which the read-out fell short of the control. Low values mean little suppression, high ones strong suppression.

Where a name gives a salt, the structure may show the parent alone.

`CCOC(=O)Cc1ccc(NC(=O)[C@H](CCCCN)NC(=O)OC(C)(C)C)cc1` [Example 25, (S)-ethyl 4-[[6-amino-2-[[(1,1-dimethylethoxy)carbonyl]amino]-1-oxohexyl]amino]benzeneacetate monohydrochloride] registered an inhibition at 0.2 µM of 38%. With `NC(CCCCNC(=O)OCc1ccccc1)C(=O)Nc1ccc(CC(=O)N[C@@H](CC(=O)O)C(=O)O)cc1` (some centres unmarked) [Example 20], the “% inhibition at 200 nM test compound” value is recorded as 34%. `COC(=O)c1ccc(NC(=O)[C@H](CCCCN)NC(C)=O)cc1-c1cccc(O)c1` [Example 14, (S)-methyl 4-[[2-(acetylamino)-6-amino-1-oxohexyl]amino]-2-(3-hydroxyphenyl)benzoate] registered an inhibition at 0.2 µM of 60%.

In the case of `CC(C)(C)OC(=O)N[C@@H](CCCCN)C(=O)Nc1ccc(C(=O)O)c(-c2cccc(O)c2)c1` [Example 31, 5-(((2S)-6-amino-2-((tert-butoxycarbonyl)amino)hexanoyl)amino)-3'-hydroxy(1,1'-biphenyl)-2-carboxylic acid], the inhibition at 0.2 µM was above 95%.

As for `CC(=O)NC(CCCCN)C(=O)Nc1ccc(C(=O)N[C@@H](CC(=O)O)C(N)=O)c(-c2cccc(O)c2)c1` (stereo partly drawn) [Example 16, (S)-N-[4-[[2-(acetylamino)-6-amino-1-oxohexyl]amino]-2-(3-hydroxyphenyl)benzoyl]-L-α-asparagine], the inhibition at 0.2 µM was determined as 86%. As for `CC(=O)N[C@@H](CCCCN)C(=O)Nc1ccc(C(=O)N[C@@H](CC(=O)O)C(N)=O)c(-c2ccc(O)cc2)c1` [Example 28, (3S)-3-(((5-(((2S)-2-(acetylamino)-6-aminohexanoyl)amino)-4'-hydroxy(1,1'-biphenyl)-2-yl)carbonyl)amino)-4-amino-4-oxobutanoic acid], 0.2 µM produced 59% inhibition. Regarding `COC(=O)c1ccc(NC(=O)[C@H](CCCCN)NC(=O)OC(C)(C)C)cc1-c1ccc(O)cc1` [Example 27, methyl 5-(((2S)-6-amino-2-((tert-butoxycarbonyl)amino)hexanoyl)amino)-4'-hydroxy(1,1'-biphenyl)-2-carboxylate], the inhibition at 0.2 µM worked out at 28%. As to `CC(=O)NC(CCCCN)C(=O)Nc1ccc(C(=O)N[C@@H](CC(N)=O)C(=O)O)c(-c2ccccc2)c1` (some centres unmarked) [Example 17], the “% inhibition at 200 nM test compound” value is above 95%. On the same count and under the same terms, next, `COC(=O)c1ccc(NC(=O)[C@H](CCCCNC(=O)OCc2ccccc2)NC(C)=O)cc1-c1cccc(OCc2ccccc2)c1` [Example 12, (S)-methyl 4-[[2-(acetylamino)-6-[[(phenylmethoxy)carbonyl]amino]-1-oxohexyl]amino]2-[(3-(phenylmethoxy)phenyl benzoate]: 29%; `CC(=O)NC(CCCCN)C(=O)Nc1ccc(C(=O)N[C@@H](CC(N)=O)C(=O)O)cc1` (stereo partly drawn) [Example 18, (S)-N-[4-[[2-(acelylainino)-6-amino-1-oxohexyl]amino]benzoyl]-L-α-asparagine]: 90%. The compound `CC(C)(C)OC(=O)C[C@H](NC(=O)Cc1ccc(N)cc1)C(=O)OC(C)(C)C` [Example 19, N-[(4-aminophenyl)acetyl]-L-aspartic acid bis(1,1-dimethylethyl) ester] yielded an inhibition at 0.2 µM of 32%. Turning to `COC(=O)c1ccc(NC(=O)[C@@H](CCCCN)NC(=O)OC(C)(C)C)cc1-c1ccccc1O` [Example 10, (R)-methyl 4-[[6-amino-2-[[(1,1-dimethylethoxy)carbonyl]amino]-1-oxohexyl]amino]-2-(2-hydroxypheal)benzoate], the “% inhibition at 200 nM test compound” value is recorded as 80%.

For the compound `COC(=O)c1ccc(NC(=O)[C@@H](CCCCN)NC(=O)OC(C)(C)C)cc1-c1cccc(O)c1` [Example 9, (R)-methyl 4-[[6-amino-2-[[(1,1-dimethylethoxy)carbonyl]amino]-1-oxohexyl]amino]-2-(3-hydroxyphenyl)benzoate], the inhibition at 0.2 µM is above 95%. Same read-out and setting: then `CC(=O)N[C@@H](CCCCN)C(=O)Nc1ccc(C(=O)O)c(-c2cccc(O)c2)c1` [Example 15, (S)-4-[[2-(acetylamino)-6-amino-1-oxohexyl)amino]-2-(3-hydroxyphenyl)benzoic acid], with 64%.
